Results published in patent US6458577B1, “Methods of culturing and assaying a virus in a specimen and compositions and cell lines for doing the same” (priority 1997, dated 2002).
Where “and” joins values, the source holds several entries; their conditions need not be identical. Equal values may be shown once. Marks after values point to notes of the source that are not given here.

What was measured:
[1] = tested on: CMV in mink lung cells (ATCC No. CCL64); test: CMV shell vial culture in NaB-treated mink lung cells, immunofluorescent staining of IE antigen, count of stained nuclei; format: cell-based; settings: for # of Foci (average # of stained nuclei counted from three shell vials): 80 mM sodium butyrate, mink lung
[2] = tested on: CMV in mink lung cells (ATCC No. CCL64); test: as above; format: cell-based; settings: for Treated: average # of nuclei staining from three shell vials: 80 mM sodium butyrate 24 hours before CMV infection; for Treated: average # of nuclei staining from three shell vials / counts of positive stained nuclei from 2 shell vials / # of Foci (average # of stained nuclei counted from three shell vials): mink lung; for counts of positive stained nuclei from 2 shell vials: 80 mM sodium butyrate 24 hours before infection; for # of Foci (average # of stained nuclei counted from three shell vials): 80 mM sodium butyrate; for # positive stained nuclei: average of four shell vials
Protocol: (§1) Mink lung cells available from American Type Culture Collection ATTC No. CCL64 are provided. The cells are received in frozen vials from ATCC and are prepared by first thawing in a 37° C. water bath. The thawed cells are removed from the bath and cultured in a tissue culture flask with Opti MEM culture medium supplemented with 5% fetal calf serum and non-essential amino acids, available from Life Technologies, Inc., of Gaithersburg, Md., and the antibiotics penicillin (100 units/ml), streptomycin (100 μg/ml) and the fungizone amphotericin (0.25 μg/ml). The cultured cells reach a complete monolayer in about 3 to 4 days. The mink lung cells are propagated by trypsinization and approximately 2.5×10^5 dispersed cells per shell vial are seeded in shell vials with cover slips. The shell vials are incubated at 37° C. for 24 hours or until the cells form a monolayer.
(§2) The cells were then treated with a 5 mM sodium butyrate (NaB) tissue culture solution, prepared by dissolving the appropriate amount of NaB in tissue culture media and filtering the solution, and incubated for 16 to 24 hours. After incubation the NaB and tissue culture media is removed and the treated cells are inoculated with 0.2 ml of CMV inoculum originally from a clinical specimen obtained from urine and prepared by putting the specimen into a viral transport medium containing Hank's buffer, 1% bovine albumin and the antibiotics penicillin (200 units/ml) and streptomycin (200 μg/ml) and the fungizone amphotericin (0.5 μg/ml). After inoculation the shell vials are centrifuged at 700×g for 45 minutes at 23° C. After centrifugation, 0.5 ml of fresh media is added to each vial and the vials are incubated at 37° C. for 16 to 24 hours. After incubation the media is removed and the cell layers are rinsed with phosphate buffered saline (PBS), fixed with cold acetone for 10 minutes, and rinsed again with PBS.
After fixing, the cells are stained by adding 100 μl of CMV monoclonal antibody (mAb), incubated at 37° C. for 45 minutes and then rinsed with PBS. The CMV mAb used is E-13 monoclonal antibody against immediate early (IE) antigen of CMV. This antibody is used as a primary antibody in the first step of staining and is available from Accurated Chemical and Scientific Co., Westbury, N.Y. After the first staining step 100 μl of biotin which is conjugated with antimouse IgG is added followed by additional incubation at 37° C. for 45 minutes. The biotin complex is available from Boerhinger Mannheim Co., Indianapolis, Ind. The cells are rinsed again with PBS after incubation and then incubated with 100 μl of streptavidin conjugated with fluorescein isothiocyanate (FITC) for 45 minutes at 37° C. The streptavidin complex is also available from Boerhinger Mannheim Co., Indianapolis, Ind. After a final rinse with PBS, a coverslip removed from the shell vial is mounted on the slide which is then examined under a fluorescence equipped microscope manufactured in Germany by Carl Zeiss, Inc., and available from W. Nuhsbaum, McHenry, II. The specific apple-green stained nuclei were counted. The results are reported in Table 1 as positive stained nuclei as an average of four shell vials. […]
These examples were prepared using the same procedure as Example 1, except that the concentration of NaB used was varied and both mink lung cells and MRC-5 cells were used. Also, the MRC-5 were treated with NaB before infection and 2 mM CaCl2, 1% DMSO and 10^−5M dexamethasone after infection. Table 3 indicates the concentration of NaB used and the results obtained. […]
These examples used the same procedure as Example 1 for CMV growth except that the time of treatment with sodium butyrate was varied, i.e., the cells were treated with 80 mM sodium butyrate for different times before infection, and the MRC-5 cells were treated with 2 mM calcium chloride (CaCl2), 1% dimethyl sulfoxide (DMSO) and 10^−5M dexamethasone after infection.

HSV-1 in mink lung cells = test: HSV-1 shell vial culture in NaB-treated mink lung cells, foci of cytopathic effect under light microscope; format: cell-based; settings: for cpe = foci of cytopathic effect: mink lung cells, average of two shell vials
Protocol: as §1
Mink lung cells were prepared as described in Example 1. Cells were then infected with HSV-1 (originally from clinical specimens but passaged once in tissue culture so virus content is assured). The HSV-1 culture fluid was diluted 1:1000 before use for inoculation. In each shell vial, 0.2 ml of inoculum was used. After centrifuging for 45 minutes at 700×g at 23° C., 0.5 ml of Opti-MEM with 2% fetal calf serum was added to each vial and incubated overnight at 37° C. The following day, the cytopathic effect of the inoculated culture was observed under light microscope. The results are reported in Table 2 and are from the average of two shell vials.

CMV in MRC-5 cells = test: CMV shell vial culture in NaB-treated MRC-5 cells, immunofluorescent staining, count of stained nuclei; format: cell-based, human; settings: for counts of positive stained nuclei from 2 shell vials: 80 mM sodium butyrate 24 hours before infection, MRC-5, cell age 2 days; for MRC-5 cells # of stained nuclei: 2 mM CaCl2, 1% DMSO, 10^-5M dexamethasone after infection
Protocol: as §2
After fixing, the cells are stained by adding 100 μl of CMV monoclonal antibody (mAb), incubated at 37° C. for 45 minutes and then rinsed with PBS. The CMV mAb used is E-13 monoclonal antibody against immediate early (IE) antigen of CMV. This antibody is used as a primary antibody in the first step of staining and is available from Accurated Chemical and Scientific Co., Westbury, N.Y. After the first staining step 100 μl of biotin which is conjugated with antimouse IgG is added followed by additional incubation at 37° C. for 45 minutes. The biotin complex is available from Boerhinger Mannheim Co., Indianapolis, Ind. The cells are rinsed again with PBS after incubation and then incubated with 100 μl of streptavidin conjugated with fluorescein isothiocyanate (FITC) for 45 minutes at 37° C. The streptavidin complex is also available from Boerhinger Mannheim Co., Indianapolis, Ind. After a final rinse with PBS, a coverslip removed from the shell vial is mounted on the slide which is then examined under a fluorescence equipped microscope manufactured in Germany by Carl Zeiss, Inc., and available from W. Nuhsbaum, McHenry, II. The specific apple-green stained nuclei were counted. The results are reported in Table 1 as positive stained nuclei as an average of four shell vials.
Conventionally, human embryonic lung (HEL) fibroblast cells, such as the MRC-5 cell line which is available from Diagnostic Hybrids, Inc., Athens, Ohio, are used worldwide for CMV culture and viral isolation.
These examples were prepared using the same procedure as Example 1, except that the concentration of NaB used was varied and both mink lung cells and MRC-5 cells were used. Also, the MRC-5 were treated with NaB before infection and 2 mM CaCl2, 1% DMSO and 10^−5M dexamethasone after infection. Table 3 indicates the concentration of NaB used and the results obtained.
(§3) These examples used the same procedure as Example 1 for CMV growth except that the age of the cells were varied, the cells were treated with 80 mM sodium butyrate 24 hours before infection, and the MCR-5 cells were treated 2 mM calcium chloride (CaCl2), 1% dimethyl sulfoxide (DMSO)and 10^−5M dexamethasone after infection.
as §3, with “MRC-5” for “MCR-5”, “(DMSO), and” for “(DMSO)and”, “infection. The cell age is measured as the time after seeding of the cells in the shell vial.” for “infection.”

CCCC(=O)[O-].[Na+] [NaB, sodium butyrate]
# of Foci (average # of stained nuclei counted from three shell vials) ([1]; time of treatment 2 hours before CMV infection): 126
# of Foci (average # of stained nuclei counted from three shell vials) ([1]; time of treatment 8 hours before CMV infection): 306
enhancement of CMV expression ([1]; 2 hour treatment of mink lung cells with NaB (80 mM)): more than a two fold enhancement
time of treatment required for optimum enhancement of CMV expression ([1]; mink lung cells, 80 mM NaB): at least 8 hours
effect on susceptibility of mink lung cells to CMV infection at different cell age (in words) ([2]; 80 mM NaB, cell age 2 to 7 days, Table 5): enhanced the susceptibility
Treated: average # of nuclei staining from three shell vials ([2]; cell age 2 days): 123*
Treated: average # of nuclei staining from three shell vials ([2]; cell age 3 days): 121
Treated: average # of nuclei staining from three shell vials ([2]; cell age 5 days): 78
Treated: average # of nuclei staining from three shell vials ([2]; cell age 7 days): 30
counts of positive stained nuclei from 2 shell vials ([2]; cell age 2 days, inoculum 10^-0 (no dilution)): 232/220
counts of positive stained nuclei from 2 shell vials ([2]; cell age 2 days, inoculum 10^-1 (1:10 dilution)): 44/52
counts of positive stained nuclei from 2 shell vials ([2]; cell age 2 days, inoculum 10^-2 (1:100 dilution)): 5/2
counts of positive stained nuclei from 2 shell vials ([2]; cell age 3 days, inoculum 10^-0 (no dilution)): 242/309
counts of positive stained nuclei from 2 shell vials ([2]; cell age 3 days, inoculum 10^-1 (1:10 dilution)): 47/43
counts of positive stained nuclei from 2 shell vials ([2]; cell age 3 days, inoculum 10^-2 (1:100 dilution)): 1/2
# of Foci (average # of stained nuclei counted from three shell vials) ([2]; time of treatment 4 hours before CMV infection): 234
# of Foci (average # of stained nuclei counted from three shell vials) ([2]; time of treatment 6 hours before CMV infection): 276
# of Foci (average # of stained nuclei counted from three shell vials) ([2]; time of treatment 18 hours before CMV infection): 360*
response of mink lung cells to NaB treatment versus NaB treated MRC-5 cells (in words) ([2]; CMV infection, Table 3): better response
# positive stained nuclei ([2]; NaB 5 mM, 16 to 24 hours before CMV inoculation, mink lung cells): 22
Mink lung cells # of stained nuclei ([2]; NaB 10 mM before CMV infection): 7 and 9
# positive stained nuclei ([2]; NaB 10 mM before CMV inoculation, mink lung cells): 30
Mink lung cells # of stained nuclei ([2]; NaB 20 mM before CMV infection): 12
# positive stained nuclei ([2]; NaB 20 mM before CMV inoculation, mink lung cells): 38
Mink lung cells # of stained nuclei ([2]; NaB 40 mM before CMV infection): 12 and 23
# positive stained nuclei ([2]; NaB 40 mM before CMV inoculation, mink lung cells): 71
Mink lung cells # of stained nuclei ([2]; NaB 80 mM before CMV infection): 26 and 32
# positive stained nuclei ([2]; NaB 80 mM before CMV inoculation, mink lung cells): 85
increase in number of stained cells as compared with untreated mink lung cells ([2]; NaB 80 mM, CMV, mink lung cells): about 10 fold
sensitivity for CMV isolation and detection versus MRC-5 cells (in words) ([2]; NaB treated mink lung cells, Table 1): far superior sensitivity
optimum concentration for growth of CMV in mink lung cells ([2]; Table 1): about 80 mM
virus detection at high dilution of inoculum (in words) ([2]; mink lung cells treated with NaB 80 mM, Table 4): the virus is still detected
cpe = foci of cytopathic effect (HSV-1 in mink lung cells; NaB 2.5 mM, 16 to 24 hours before HSV-1 infection (1:1000)): 18
cpe = foci of cytopathic effect (HSV-1 in mink lung cells; NaB 5.0 mM before HSV-1 infection): 20
cpe = foci of cytopathic effect (HSV-1 in mink lung cells; NaB 10.0 mM before HSV-1 infection): 22
cpe = foci of cytopathic effect (HSV-1 in mink lung cells; NaB 20 mM before HSV-1 infection): 12
sensitivity for HSV isolation and detection versus RK cells (in words) (HSV-1 in mink lung cells; NaB treated mink lung cells, Table 2): comparable sensitivity
Treated: average # of nuclei staining from three shell vials (CMV in MRC-5 cells; 80 mM sodium butyrate 24 hours before CMV infection, MRC-5, cell age 4 days, CaCl2, DMSO, dexamethasone after infection): 4
counts of positive stained nuclei from 2 shell vials (CMV in MRC-5 cells; CaCl2, DMSO, dexamethasone after infection, inoculum 10^-0 (no dilution)): 39/29
counts of positive stained nuclei from 2 shell vials (CMV in MRC-5 cells; CaCl2, DMSO, dexamethasone after infection, inoculum 10^-1 (1:10 dilution)): 3/1
counts of positive stained nuclei from 2 shell vials (CMV in MRC-5 cells; CaCl2, DMSO, dexamethasone after infection, inoculum 10^-2 (1:100 dilution)): 0/0
MRC-5 cells # of stained nuclei (CMV in MRC-5 cells; NaB 10 mM before CMV infection): 2 and 3
MRC-5 cells # of stained nuclei (CMV in MRC-5 cells; NaB 20 mM before CMV infection): 2
MRC-5 cells # of stained nuclei (CMV in MRC-5 cells; NaB 80 mM before CMV infection): 7 and 6
